Results from the CheMixHub viscosity set.
“And” between values parts separate entries of the source, which are not always exact repeats. Equal values may be shown once.

Experiment: xn = mol fraction of the nth substance listed

ClCCl + COCCOCCOC
298.15 K, 101.33 kPa
Settings	viscosity [mPa·s]
x2 = 0.097	0.546
x2 = 0.1505	0.593
x2 = 0.2008	0.636
x2 = 0.2942	0.711
x2 = 0.3997	0.79
x2 = 0.4508	0.817
x2 = 0.5008	0.843
x2 = 0.5555	0.87
x2 = 0.598	0.891
x2 = 0.6948	0.921
x2 = 0.7543	0.938
x2 = 0.8003	0.955
x2 = 0.8967	0.975
x2 = 0.9205	0.98

CCNc1ccccc1 + CC(C)CO
viscosity [mPa·s], 101 kPa
Settings	303.15 K	308.15 K
x1 = 0.0756	2.789	2.414
x1 = 0.1356	2.742	2.38
x1 = 0.1958	2.695	2.348
x1 = 0.2654	2.637	2.307
x1 = 0.3214	2.588	2.27
x1 = 0.3956	2.517	2.215
x1 = 0.4565	2.454	2.16
x1 = 0.5202	2.384	2.106
x1 = 0.6021	2.284	2.029
x1 = 0.6745	2.194	1.956
x1 = 0.7325	2.116	1.889
x1 = 0.8025	2.019	1.811
x1 = 0.8869	1.903	1.714

ClCCl + COCCOCCOCCOCCOC
298.15 K, 101 kPa
Settings	viscosity [mPa·s]
x2 = 0.017	0.459
x2 = 0.0332	0.51
x2 = 0.0557	0.586
x2 = 0.0844	0.681
x2 = 0.1417	0.909
x2 = 0.1831	1.075
x2 = 0.236	1.294
x2 = 0.2842	1.492
x2 = 0.292	1.519
x2 = 0.3401	1.699
x2 = 0.38	1.848
x2 = 0.4698	2.155
x2 = 0.5134	2.334
x2 = 0.6018	2.651
x2 = 0.6882	2.749
x2 = 0.7367	2.865
x2 = 0.8029	2.981
x2 = 0.8758	3.111
x2 = 0.9066	3.17
x2 = 0.9339	3.239

ClCCl + CCCCCO
298.15 K, 101 kPa
Settings	viscosity [mPa·s]
x2 = 0.0966	0.7741
x2 = 0.194	1.097
x2 = 0.2921	1.391
x2 = 0.3909	1.669
x2 = 0.4905	1.93
x2 = 0.5908	2.182
x2 = 0.6919	2.437
x2 = 0.7938	2.688
x2 = 0.8965	2.927

[Ce+3].[Cl-].[Cl-].[Cl-] + O
Settings	viscosity
298.15 K, 101.33 kPa, x1 = 0.06822	12.27 mPa·s and 12.27 mPa·s

CC(C)C[C@H](NC(=O)[C@H](C)N)C(=O)O + O
viscosity [mPa·s], 101 kPa
Settings	x1 = 3.33e-05	x1 = 7.01e-05	x1 = 0.000104	x1 = 0.000146	x1 = 0.000174	x1 = 0.0002197	x1 = 0.0002561	x1 = 0.0002862	x1 = 0.0003157	x1 = 0.0003701
305.15 K	0.7759	0.7781	0.7785	0.7806	0.7826	0.7869	0.796	0.8042	0.8098	0.8149
310.15 K	0.7079	0.7086	0.7126	0.7129	0.7165	0.7198	0.7242	0.7292	0.7334	0.7359
315.15 K	0.6492	0.6505	0.6525	0.6559	0.6596	0.6605	0.6629	0.6678	0.6692	0.6709

ClCCl + COCCO
298.15 K, 101 kPa
Settings	viscosity [mPa·s]
x2 = 0.1103	0.5177
x2 = 0.2181	0.5832
x2 = 0.3235	0.6707
x2 = 0.4266	0.7669
x2 = 0.5274	0.8908
x2 = 0.626	1.029
x2 = 0.7225	1.168
x2 = 0.817	1.295
x2 = 0.9095	1.428

CCC(=O)N(CC)CC + O
298.16 K, 101 kPa
Settings	viscosity [mPa·s]
x2 = 0.0649	1.31
x2 = 0.1684	1.49
x2 = 0.2965	1.79
x2 = 0.4448	2.27
x2 = 0.5923	2.93
x2 = 0.7652	3.86
x2 = 0.8001	3.91
x2 = 0.8352	3.83
x2 = 0.8933	3.34
x2 = 0.9093	3.03

ClCCCl + COCCO
298 K, 101.33 kPa
Settings	viscosity [mPa·s]
x2 = 0.1031	0.803
x2 = 0.1362	0.811
x2 = 0.2067	0.83
x2 = 0.2908	0.882
x2 = 0.395	0.954
x2 = 0.5147	1.059
x2 = 0.5965	1.138
x2 = 0.6926	1.232
x2 = 0.7409	1.28
x2 = 0.9141	1.458

CCNc1ccccc1 + Oc1ccccc1
viscosity [mPa·s], 101 kPa
Settings	298.15 K	313.15 K	323.15 K
x1 = 0.0794	8.63	4.35	3.14
x1 = 0.1373	8.82	4.53	3.16
x1 = 0.206	8.53	4.34	3.06
x1 = 0.2495	8.18	4.26	3.13
x1 = 0.3418	7.28	3.96	2.97
x1 = 0.4372	5.98	3.41	2.54
x1 = 0.5	5.1	2.99	2.15
x1 = 0.5381	4.77	2.78	2.1
x1 = 0.6445	3.68	2.31	1.76
x1 = 0.7005	3.27	2.06	1.62
x1 = 0.7565	2.9	1.88	1.54
x1 = 0.8744	2.22	1.55	1.24

COCC(C)OCC(C)OC (stereo not given) + CCCO
298.15 K, 101 kPa
Settings	viscosity [mPa·s]
x1 = 0.0008	1.955
x1 = 0.0409	1.775

CCCCCCCCCCCCCCCC(=O)O + CC(C)[C@@H]1CC[C@@H](C)C[C@H]1O
100 kPa, x1 = 0.15
Settings	viscosity [mPa·s]
313.15 K	15.25
318.15 K	11.78
323.15 K	9.29

CCC(C)Br (stereo not given) + CC(C)(C)O
viscosity [mPa·s], 101.3 kPa
Settings	x1 = 0.05	x1 = 0.102	x1 = 0.2043	x1 = 0.3044	x1 = 0.4041	x1 = 0.5032	x1 = 0.6203	x1 = 0.7036	x1 = 0.8056	x1 = 0.9064
298.15 K	3.175	2.363	1.519	1.152	0.9576	0.8183	0.7087	0.6532	0.6048	0.5718
313.15 K	1.651	1.36	0.9969	0.8102	0.7146	0.6337	0.5665	0.5317	0.4987	0.4777
